According to ChEMBL document CHEMBL5518239, “Recent Advances on Small-Molecule Inhibitors of Lipocalin-like Proteins” (J Med Chem, 2024):
Each block holds one compound with its values, some of them ahead of it.

Columns and labels:
[1] = target: T1, Fatty acid-binding protein, adipocyte (Homo sapiens, UniProt P15090)
[2] = target: Retinol-binding protein 4 (Homo sapiens, UniProt P02753)
[3] = target: T2, Fatty acid-binding protein, brain (Homo sapiens, UniProt O15540)
[4] = target: T2, Fatty acid-binding protein, brain; remark: listed apart in the source
[5] = target: T3, Fatty acid-binding protein, heart (Homo sapiens, UniProt P05413)
[6] = target: T4, Retinol-binding protein 1 (Homo sapiens, UniProt P09455)
T4 sequence (P09455 whole entry): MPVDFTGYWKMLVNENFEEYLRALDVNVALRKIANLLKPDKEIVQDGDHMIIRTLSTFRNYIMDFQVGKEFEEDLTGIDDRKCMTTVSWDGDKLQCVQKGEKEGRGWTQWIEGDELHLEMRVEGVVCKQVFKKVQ

[7] = target: T4, Retinol-binding protein 1; remark: listed apart in the source
[8] = target: T1, Fatty acid-binding protein, adipocyte; remark: listed apart in the source
[9] = target: T3, Fatty acid-binding protein, heart; remark: listed apart in the source
in vitro = conditions: human, liver microsomes

IC50 [1]: 3.98 µM
Compound: O=C(O)Cc1cn(-c2ccccc2-c2nc(-c3ccccc3)c(-c3ccccc3)s2)nn1

Kd [2]: 0.131 µM
Compound: CC1=C(/C=C/C(C)=C/C=C/C(C)=C/C(=O)N2CCOCC2)C(C)(C)CCC1

Ki [3]: 0.83 µM
Compound: O=C(O)[C@H]1[C@H](c2ccccc2)[C@H](C(=O)Oc2cccc(C3=CCOCC3)c2)[C@H]1c1ccccc1

Ki [4]: 3.3 µM
Ki [5]: > 10 µM
Compound: O=C(Nc1cccc2ccccc12)[C@H]1[C@H](c2ccccc2)[C@H](C(=O)Nc2cccc3ccccc23)[C@H]1c1ccccc1

Ki [6]: 7.1 µM
Compound: Cc1ccc(C2(c3noc(CN(C)Cc4cccs4)n3)CCCC2)cc1

Ki [7]: 0.067 µM
Compound: C=C(C)C1CCCC[C@H]1c1c(O)cc(O)cc1CCCCC (stereo not given in full)

Kd [2]: 0.131 µM
Compound: CC1=C(/C=C/C(C)=C/C=C/C(C)=C/C(=O)Nc2ccc(OCC(=O)O)cc2)C(C)(C)CCC1

Ki [5]: 1.59 µM
Compound: COc1ccccc1[C@H]1[C@H](C(=O)O)[C@H](c2ccccc2OC)[C@H]1C(=O)Oc1ccccc1-c1ccccc1

Ki [4]: 1.5 µM
Ki [5]: 2.6 µM
Compound: O=C(O)[C@H]1[C@@H](c2ccccc2)[C@H](C(=O)Nc2cccc3ccccc23)[C@@H]1c1ccccc1

Kd [2]: 0.131 µM
Compound: CC1=C(/C=C/C(C)=C/C=C/C(C)=C/C(=O)NCC(O)CO)C(C)(C)CCC1 (stereo not given)

Ki [6]: 7.1 µM
Compound: CC(c1cccs1)N(C)Cc1nc(C(c2ccccc2)c2ccccc2)no1 (stereo not given)

IC50 [1]: 2.51 µM
Compound: O=C(O)Cc1cn(-c2ccccc2-c2nc(-c3ccc(Cl)cc3)c(-c3ccccc3)s2)nn1

IC50 [8]: 0.9 µM
Compound: C=C1CC[C@@H]2[C@](C)(CO)[C@H](O)CC[C@@]2(C)[C@@H]1C/C=C1/C(=O)OC[C@H]1O [ANDROGRAPHOLIDE]

IC50 [1]: 1.26 µM
Compound: O=C(O)Cc1cn(-c2ccccc2-c2nc(-c3ccc4ccccc4c3)c(-c3ccccc3)s2)nn1

Ki [5]: 3.6 µM
Ki [3]: 0.4 µM
Compound: O=C(O)[C@H]1[C@@H](c2ccccc2)[C@H](C(=O)Oc2cccc3ccccc23)[C@@H]1c1ccccc1

Kd [2]: 0.131 µM
Compound: CC1=C(/C=C/C(C)=C/C=C/C(C)=C/C(=O)NCCO)C(C)(C)CCC1

Kd [2]: 0.131 µM
Compound: CC1=C(/C=C/C(C)=C/C=C/C(C)=C/C(=O)Nc2ccc(N(C)C)cc2)C(C)(C)CCC1

Ki [9]: 0.024 µM
Compound: O=C(O)CCCOc1ccc(F)cc1-c1cc(-c2ccccc2C(F)(F)F)n(-c2ccccc2)n1

Ki [6]: 7.1 µM
Compound: Cc1ccc(C2(c3noc(CN(C)Cc4cnn(C)c4)n3)CCCC2)cc1

Ki [4]: 1.3 µM
Ki [5]: 3.5 µM
Compound: O=C(O)[C@H]1[C@@H](c2ccccc2)[C@H](C(=O)Oc2ccc3ccccc3c2)[C@@H]1c1ccccc1

remaining at 0.5 h (in vitro): < 30%
Compound: O=C(O)c1ccccc1NC(=O)N1CCC(c2ccccc2C(F)(F)F)CC1
